# Data as given in patent US20220153780A1, “SALT FORMS OF S-(N, N-DIETHYLCARBAMOYL)GLUTATHIONE” (Tonix Pharma Holdings Limited, priority 2019, published 2022).
# Test system: C57BL/6J mice
# Assay: Voluntary ethanol intake in chronic intermittent ethanol (CIE) exposed and air-exposed (CTL) mice, limited access drinking
# Type: in vivo
# Conditions: for weekly average ethanol intake vs vehicle: nondependent (CTL) mice; for ethanol intake as percent change from vehicle group: Test cycles 5 and 7
# Experimental: Following the established protocol, adult male C57BL/6J mice (N=96) were trained to drink ethanol in a limited access (2 hour/day) free-choice (15% v/v ethanol vs. water) drinking procedure. After four weeks, stable baseline level of intake was established, and mice were separated into two groups. One group of mice (CIE group) was exposed to chronic intermittent ethanol (CIE) vapor exposure in inhalation chambers (16 hour/days x 4 days). The remaining mice (CTL group) were treated similarly but exposed to air in inhalation chambers. After a 72 hour forced abstinence period, all mice resumed ethanol drinking in the same limited access paradigm for a 5-day test period. This pattern of weekly CIE (or air) exposure cycles with intervening weekly test drinking cycles was repeated for seven cycles following procedures previously published (Becker and Lopez, 2004; Griffin et al., 2009; Lopez and Becker, 2005).
# All mice received intraperitoneal (IP) administration of saline 30 min prior to the start of daily drinking sessions during baseline and the early test cycles to acclimate the animals to the handling procedure. After the fourth ethanol intake test cycle, mice were further divided into carbamathione dose treatment conditions (N=10-12/group).
# After Test 4, CIE and CTL mice were separated in dose groups for Test 5 (N=11-12/group), with the groups equated for intake during Test 4. Mice received intraperitoneal (IP) injections of carbamathione (100, 200 or 400 mg/kg) or vehicle (0.25% carboxymethyl cellulose, CMC in water) 30 min before drinking. The carbamathione IP injections were administered as a suspension. Ethanol intake during Test 5 was averaged for the week and analyzed by ANOVA, with Group (CTL, CIE) and carbamathione dose (0, 100, 200, 400 mg/kg) as between-subject factors. ANOVA indicated a significant main effect of Group [F(1,78)=53.33; p<0.0001], reflecting a higher level of ethanol intake in CIE mice compared to CTL mice (* in FIG. 4).
# The efficacy of carbamathione in reducing ethanol intake in mice was next compared to the efficacy of disulfiram, an FDA approved drug used in the treatment of chronic alcoholism. The mice were exposed to a sixth cycle of CIE (or air) and evaluated for intake with the same procedure used in the previous test cycle, except that disulfiram was included as a comparator drug. Mice that received vehicle or 400 mg/kg carbamathione continued with this treatment schedule. Mice that received 100 or 200 mg/kg carbamathione were combined and randomly redistributed to receive 75 or 100 mg/kg disulfiram during the first two days and these doses were increased to 125 and 150 mg/kg disulfiram, respectively for the last three days of Test 6. Disulfiram doses were prepared with the same vehicle used for carbamathione (i.e., 0.25% CMC). Separate analyses were conducted to evaluate the effect of carbamathione and disulfiram treatment. Data presented in FIG. 5 show the weekly average intake for CIE and CTL mice that received vehicle or carbamathione. […] Data for mice that received vehicle, 75, or 100 mg/kg of disulfiram were averaged over the first two days of the week. […]
# Mice were evaluated again for voluntary ethanol intake after a seventh and final CIE or air exposure cycle. During the five days of Test 7, mice that received vehicle injections from the start of the study continued to receive vehicle injections. Mice that received carbamathione and disulfiram in Test cycles 5 and 6 received vehicle injections in Test 7 to evaluate any long-lasting effect of previous treatment (drug washout evaluation). Finally, mice that received 400 mg/kg carbamathione continued treatment with a higher dose of carbamathione (600 mg/kg). Analysis of the groups that received vehicle injections during Test 7 was performed with Group (CIE, CTL) and previous treatment (vehicle, low, or high disulfiram dose) as main factors. This analysis indicated a significant main effect of Group [F(1,59)=25.36; p<0.0001]. […] (data not shown). […]
structure (smiles),measurement,setting,value
"CCN(CC)C(=O)SCC(NC(=O)CCC(N)C(=O)O)C(=O)NCC(=O)O (centres unmarked) [carbamathione, S—(N,N-diethylcarbamoyl)glutathione]","reduction in ethanol intake, CTL mice compared to CIE-exposed mice","200, 400 and 600 mg/kg, percent change from vehicle",significantly larger reduction in ethanol intake
same,weekly average ethanol intake vs vehicle and 100 mg/kg,"Test 5, 400 mg/kg IP in 0.25% CMC, 30 min before drinking, CIE and CTL mice together",significantly lower ethanol intake
same,weekly average ethanol intake vs vehicle,"Test 5, 200 mg/kg IP",significantly reduced ethanol intake
same,weekly average ethanol intake vs vehicle,"Test 5, 400 mg/kg IP",significantly reduced ethanol intake
same,"weekly average ethanol intake vs vehicle, pair-wise comparison","Test 6, 400 mg/kg IP, p=0.07",trend for lower ethanol intake
same,ethanol intake vs vehicle,"Test 7, 600 mg/kg IP, CIE and CTL groups, 600 mg/kg",significantly reduce ethanol intake
same,ethanol intake as percent change from vehicle group,"CIE mice, 600 mg/kg (only the highest dose)",significant decrease in ethanol intake
same,ethanol intake as percent change from vehicle group,"CTL mice, 200, 400 and 600 mg/kg",significant reduction in voluntary ethanol intake
